Where two headings read alike, the source gives them in different places.
Assays:
DENV2 = assay: CPE-based antiviral assay (resazurin), DENV2 in BHK-21; format: cell-based, Dengue virus 2; conditions: Dengue virus, DENV2, BHK-21, 96 h, read-out: EC50 against DENV2
HCoV-229E [1] = assay: Resazurin reduction assay, HCoV-229E-infected MRC5 cells; conditions: for EC50: Human coronavirus 229E
YFV = assay: microbe, parasite or virus in culture; format: cell-based; conditions: Yellow fever virus, BHK-21, 72 h, read-out: EC50 against YFV
DENV4 = assay: CPE-based antiviral assay (resazurin), DENV4 in BHK-21; format: cell-based, Dengue virus 4; conditions: Dengue virus, DENV4, BHK-21, 120 h, read-out: EC50 against DENV4
SARS-CoV-2 [2] = assay: Immunofluorescence assay of viral spike protein, SARS-CoV-2 in MRC5/ACE2 cells; format: cell-based
SARS-CoV-2 [3] = assay: qRT-PCR analysis of SARS-CoV-2 in Caco-2 cells (rescreening, supernatant viral RNA); format: cell-based; conditions: Severe acute respiratory syndrome coronavirus 2; qRT-PCR analysis using Caco-2 cells, MOI 0.1, 48 h
DENV1 = assay: CPE-based antiviral assay (resazurin), DENV1 in BHK-21; format: cell-based, Dengue virus 1; conditions: Dengue virus, DENV1, BHK-21, 120 h, read-out: EC50 against DENV1
SARS-CoV [4] = format: cell-based; conditions: Caco-2 cells, MOI 0.1, 48 hpi
SARS-CoV [5] = format: cell-based; conditions: supernatants of SARS-CoV-infected Caco-2 cells, 0.5 μM, 48 hpi
ZIKV = assay: CPE-based antiviral assay (MTT), ZIKV in BHK-21; format: cell-based; conditions: Zika virus, BHK-21, 72 h, read-out: EC50 against ZIKV
HCoV-OC43 [6] = format: cell-based, Human coronavirus OC43
HCoV-229E [7] = assay: qRT-PCR of viral RNA, HCoV-229E-infected Huh7 cells; format: cell-based, Human coronavirus 229E; conditions: MOI 0.05, 48 hpi, serially diluted compound
HCoV-OC43 [8] = assay: Resazurin reduction assay, HCoV-OC43-infected MRC5 cells
SARS-CoV [9] = format: cell-based; conditions: MRC5/ACE2 cells, 1 μM, 48 hpi
[10] = Cytotoxicity against VeroE6/TMPRSS2 cells; format: cell-based; conditions: African green monkey
Description: (§1) The MTT (3-[4,5-dimethyl-2-thiazolyl]-2,5-diphenyl-2H-tetrazolium bromide) and resazurin reduction assays were carried out as previously described ([Nobori et al., 2018]; [Sanaki et al., 2019]). These were performed to calculate cell viability following viral induced CPE or cytotoxicity. Assay conditions for flaviviruses are as described in Table 2.

SARS-CoV-2 [11] = format: cell-based
WNV = assay: CPE-based antiviral assay (MTT), WNV in BHK-21; format: cell-based; conditions: West Nile virus, BHK-21, 72 h, read-out: EC50 against WNV
[12] = Cytotoxicity against A549/TMPRSS2 cells; format: cell-based; conditions: human
Description: as §1

DENV3 = assay: CPE-based antiviral assay (resazurin), DENV3 in BHK-21; format: cell-based, Dengue virus 3; conditions: Dengue virus, DENV3, BHK-21, 120 h, read-out: EC50 against DENV3
SARS-CoV-2 [13] = assay: qRT-PCR of viral RNA, SARS-CoV-2-infected Caco-2 cells; format: cell-based; conditions: MOI 0.1, 48 hpi
BHK-21 cells = assay: Cytotoxicity assay in BHK-21 cells; format: cell-based, Hamster; conditions: concentrations up to 20 μM
[14] = Cytotoxicity assay in BHK-21 cells; format: cell-based, Hamster; conditions: hamster
MRC5 cells = assay: Cytotoxicity against MRC5 cells; format: cell-based, Human; conditions: mean from three independent experiments (Table 4), read-out: CC50 MRC5, mean
Description: as §1

[15] = Cytotoxicity against MRC5 cells; format: cell-based, Human; conditions: human, rescreening (Table 3), read-out: CC50
Description: as §1

HCoV-OC43 [16] = assay: qRT-PCR of viral RNA, HCoV-OC43-infected Huh7 cells; format: cell-based, Human coronavirus OC43; conditions: MOI 0.1, 48 hpi, serially diluted compound
[17] = Cytotoxicity against Caco-2 cells; format: cell-based; conditions: human
Description: as §1

[18] = Cytotoxicity against Huh7 cells; format: cell-based; conditions: human
Description: as §1

SARS-CoV-2 [19] = assay: Time-of-addition assay, SARS-CoV-2 in Caco-2 cells; format: cell-based; conditions: 1 μM added at 3 hpi, read at 24 hpi
Description: The time-of-addition assay was performed according to previous reports ([Ohashi et al., 2021]; [Wang et al., 2020]). Briefly, Caco-2 cells were seeded on the day before SARS-CoV-2 infection (MOI of 0.1) and compound treatment. One micromolar HMTU or DMSO was then added at the indicated time points (Whole, Entry, and Post-entry). For “Whole” treatment, the cells were incubated with both the compound and virus for 1 h. After incubation, unbound viruses were removed, and the cells were cultured with HMTU-containing medium for 2 h to allow viral entry. At 3 hpi, culture supernatants were replaced with new HMTU-containing media and maintained until the end of the experiment. For “Entry” treatment, the cells were incubated as described above, and at 3 hpi, HMTU-containing media were replaced with fresh culture media and maintained until the end of the experiments. For “Post-entry” treatment, HMTU was added to the virus-infected cells at 3 hpi and maintained until the end of the experiment. At 24 hpi, total RNA was isolated, and viral RNA was quantified using qRT–PCR analysis as described above. Supernatants were collected, after which serial dilutions of these supernatants were used to inoculate a monolayer of the VeroE6/TMPRSS2 cells. Three days after inoculation, the CPE was scored, and TCID50/mL was calculated to measure viral titers.

JEV = assay: CPE-based antiviral assay (MTT), JEV in BHK-21; format: cell-based; conditions: Japanese encephalitis virus, BHK-21, 72 h, read-out: EC50 against JEV
HCoV-OC43 [20] = assay: Immunofluorescence assay of viral nucleoprotein, HCoV-OC43 in A549/TMPRSS2 cells; format: cell-based, Human coronavirus OC43; conditions: HCoV-OC43 MOI 1, 48 hpi
[21] = MRC5 cells, resazurin reduction assay

Structure (SMILES): Nc1ncnc2c1c(CO)cn2[C@@H]1O[C@H](CO)[C@@H](O)[C@H]1O [HUP1108, 5-hydroxymethyltubercidin]
- EC50 (DENV2): 240 nM
- EC50 (HCoV-229E [1]; MRC5, read-out: HCoV-229E EC50): 430 nM
- EC50 (HCoV-229E [1]; MRC5, read-out: HCoV-229E EC50, mean): 528 nM
- selectivity index (SI = CC50/EC50) for HCoV-229E (HCoV-229E [1]; MRC5 cells): > 94
- anti-HCoV-229E activity (in words) (HCoV-229E [1]; [21]): strong antiviral activities
- EC50 (YFV): 270 nM
- EC50 (DENV4): 520 nM
- viral spike protein expression (IFA) (SARS-CoV-2 [2]): significantly inhibited
- EC90 (SARS-CoV-2 [3]): 570 nM
- EC50 (DENV1): 350 nM
- SARS-CoV RNA replication, subgenomic (nucleocapsid) and genomic (RdRp) transcripts (SARS-CoV [4]): inhibited in a dose-dependent manner
- reduction of progeny virus titer (SARS-CoV [5]): more than 1 log TCID50/mL
- EC50 (ZIKV): 1300 nM
- reduction in progeny virus titer (HCoV-OC43 [6]): > 1 log
- HCoV-229E replication, subgenomic (nucleocapsid) and genomic (ORF1b) RNA transcripts (HCoV-229E [7]): dose-dependent inhibition
- EC50 (HCoV-OC43 [8]; Betacoronavirus 1, OC43, MRC5, read-out: HCoV-OC43 EC50): 350 nM
- EC50 (HCoV-OC43 [8]; Betacoronavirus 1, OC43, MRC5, read-out: HCoV-OC43 EC50, mean): 378 nM
- selectivity index (SI = CC50/EC50) for HCoV-OC43 (HCoV-OC43 [8]; MRC5 cells): > 132
- anti-HCoV-OC43 activity (in words) (HCoV-OC43 [8]; [21]): strong antiviral activities
- viral spike protein expression (IFA) (SARS-CoV [9]): significantly inhibited
- CC50 [10]: > 20000 nM
- reduction of progeny virus titer (SARS-CoV-2 [11]): more than 1 log TCID50/mL
- EC50 (WNV): 950 nM
- CC50 [12]: > 20000 nM
- EC50 (DENV3): 420 nM
- SARS-CoV-2 RNA replication, subgenomic (nucleocapsid) and genomic (RdRp) transcripts (SARS-CoV-2 [13]): inhibited in a dose-dependent manner
- cytotoxicity (in words) (BHK-21 cells): did not exhibit cytotoxicity
- CC50 [14]: > 20000 nM
- CC50 (MRC5 cells): > 50000 nM
- CC50 [15]: > 50000 nM
- HCoV-OC43 replication, subgenomic (nucleocapsid) and genomic (ORF1b) RNA transcripts (HCoV-OC43 [16]): dose-dependent inhibition
- CC50 [17]: > 20000 nM
- CC50 [18]: > 20000 nM
- intracellular and extracellular viral RNAs, post-entry step (SARS-CoV-2 [19]): significantly reduced
- EC50 (JEV): 500 nM
- positive signals of viral nucleoprotein (IFA) (HCoV-OC43 [20]): decreased in a dose-dependent fashion

— article PMC8433052 (iScience, 2021)
